Results from publication PMC12643509, “High-throughput screens identify genotype-specific therapeutics for channelopathies” (JCI Insight, 2025).
pEC50: −log10 of the molar value.

Assays:
[1] = cited from earlier work
[2] = biological target: wild-type KV11.1 (Homo sapiens, UniProt Q12809); test: cell-based
[3] = mouse, in vivo, ip, 40 mg/kg; cited from earlier work

Chain of wild-type KV11.1 (Q12809 whole entry): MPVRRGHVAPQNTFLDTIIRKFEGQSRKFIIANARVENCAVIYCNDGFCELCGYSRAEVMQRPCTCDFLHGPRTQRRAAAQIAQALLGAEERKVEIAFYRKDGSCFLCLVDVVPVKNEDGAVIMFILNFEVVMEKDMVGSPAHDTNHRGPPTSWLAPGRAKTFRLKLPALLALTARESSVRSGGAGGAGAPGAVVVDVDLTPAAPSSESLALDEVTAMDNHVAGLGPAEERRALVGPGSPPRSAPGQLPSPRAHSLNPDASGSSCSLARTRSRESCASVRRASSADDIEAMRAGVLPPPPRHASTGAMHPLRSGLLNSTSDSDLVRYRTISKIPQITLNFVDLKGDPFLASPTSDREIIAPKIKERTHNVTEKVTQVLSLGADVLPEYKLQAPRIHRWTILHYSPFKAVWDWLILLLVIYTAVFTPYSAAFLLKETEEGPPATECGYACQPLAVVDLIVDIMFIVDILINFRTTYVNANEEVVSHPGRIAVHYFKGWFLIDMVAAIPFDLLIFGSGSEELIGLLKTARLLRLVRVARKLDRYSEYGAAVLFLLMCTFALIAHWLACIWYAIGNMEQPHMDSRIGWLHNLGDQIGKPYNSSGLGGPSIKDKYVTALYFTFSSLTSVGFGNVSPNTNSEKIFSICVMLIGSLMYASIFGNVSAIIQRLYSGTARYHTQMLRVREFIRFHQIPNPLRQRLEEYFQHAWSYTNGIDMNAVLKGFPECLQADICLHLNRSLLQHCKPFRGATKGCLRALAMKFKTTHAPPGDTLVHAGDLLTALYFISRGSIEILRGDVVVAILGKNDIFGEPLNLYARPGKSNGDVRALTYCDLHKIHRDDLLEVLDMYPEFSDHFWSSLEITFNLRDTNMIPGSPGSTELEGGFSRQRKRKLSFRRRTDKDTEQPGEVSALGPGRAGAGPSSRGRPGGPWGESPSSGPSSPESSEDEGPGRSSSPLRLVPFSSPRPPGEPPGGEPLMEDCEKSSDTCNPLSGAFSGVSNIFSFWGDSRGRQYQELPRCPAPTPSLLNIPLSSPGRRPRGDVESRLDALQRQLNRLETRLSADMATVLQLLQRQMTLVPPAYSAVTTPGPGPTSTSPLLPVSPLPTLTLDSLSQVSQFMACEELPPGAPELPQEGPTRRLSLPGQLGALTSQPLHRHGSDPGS

For `Cc1cc(C)c2c(c1)[C@@H](N(Cc1cc(C(F)(F)F)cc(C(F)(F)F)c1)c1nnn(C)n1)CCCN2C[C@H]1CC[C@H](C(=O)O)CC1` [Evacetrapib, evacetrapib], the “mean QT interval compared to placebo” value ([1]; 71 healthy patients, thorough QT study) is listed as “did not significantly shorten the mean QT interval”, the “shorter QT interval compared with baseline” value ([1]; at 12 hours) is listed as 7 ms and the pEC50 [2] is listed as 5.09. The peak plasma levels [3] was 35 µmol/L.
